Results as given in patent publication US7915050B2, “Regulatory genes for plant differentiation and growth, and use of the same” (National University Corporation Nagoya University, priority 2005, dated 2011).
pIC50: −log10 of the molar value. Where two headings read alike, the source gives them in different places.

How the values were obtained:
[1] = biological target: T1, GID1 (Oryza sativa subsp. japonica, UniProt Q6L545); test: Saturation/Scatchard and association/dissociation analysis of GA binding to recombinant GID1; set-up: species or system rice
T1 construct: GST (tag of vector pGEX-4T) (N); made in house
Procedure: Panel a) depicts the saturability for the GA binding of GID1. […] Bar represents the standard deviation (n=3). Panel b) depicts the results of a Scatchard plot for the data of binding shown in a. The Kd value was calculated (correlation coefficient R^2=0.96) from t three independent experimental results. Panel c) depicts the ^3H-GA association/dissociation rate to GID1. […] Bar represents the standard deviation (n=3). […] Upper panel, none of three recombinant proteins of mutant GID1s (GID1-1, 1-2, and 1-3) corresponding to the three gid1 alleles interacted with GA4. […] Bar represents the standard deviation (n=3). Bottom panel, Coomassie brilliant blue stain of the recombinant proteins used in this experiment. Dot represents GID or tag proteins in the SDS-PAGE profile. In this experiment, almost equal amounts of proteins were used for each (80 pmol). Panel e) depicts the gross morphologies of a GID1-overexpressing plant (Actin1 promoter-GID1, right) and wild type plant (control, left) three months after seeding. Bar=50 cm. f) dose-dependent GA response in the elongation of the second leaf sheath of GID1overexpressing plant (closed triangle) and wild type (closed circle). Bar represents the standard deviation (n=5).
In the gibberellin-binding assay, [1,2,16,17-^3H4]16,17-dihydro-GA4 was used as a labeled GA4. In vitro GA-binding assays were carried out using previous methods with some modifications (Nakajima, M. et al., Biochem. Biophys. Res. Comm. 241, 782-786 (1997)). […] The eluate of the binding buffer (0.6 ml) was discarded, the subsequent eluate (0.2 ml) was collected, and the radioactivity was measured. The specific binding activity, reflecting the number of displaceable GA binding sites, was calculated by subtracting the amount of nonspecific binding from the amount of total binding. […]
Next, the kinetics of the binding of GID1 to GA was analyzed. To calculate the Kd value of GID1 to GA, the saturability of GA binding was measured using various concentrations of GA4 derivative (FIG. 4a). […]

[2] = biological target: T1, GID1; test: Competition of various GAs in the binding of the 3H-GA4 derivative to GID1 protein; set-up: species or system rice; settings: for pIC50: competition with tritiated GA4 derivative for binding to recombinant GID1, read-out: IC50 (concentration required for 50% inhibition); for Rel % (relative value): relative competition, GA4 given as 100
Procedure: (§1) In the gibberellin-binding assay, [1,2,16,17-^3H4]16,17-dihydro-GA4 was used as a labeled GA4. In vitro GA-binding assays were carried out using previous methods with some modifications (Nakajima, M. et al., Biochem. Biophys. Res. Comm. 241, 782-786 (1997)). The purified recombinant GID1 protein (400 pmol) was dissolved in 300 μl of binding buffer [20 mM Tris-HCl (pH 7.6), 5 mM 2-mercaptoethanol, and 0.1 M NaCl], and incubated with 100 μl of ^3H4-16,17-dihydroGA4 (6 pmol) for two hours at 25° C., either in the absence of non-labeled GA4 (total binding) or in the presence of 833-fold excess non-labeled GA4 (total non-specific binding). Then, 0.1 ml of the reaction mixture was loaded onto a NAP-5 column (Amersham Biosciences, Piscataway, N.J.). The eluate of the binding buffer (0.6 ml) was discarded, the subsequent eluate (0.2 ml) was collected, and the radioactivity was measured. The specific binding activity, reflecting the number of displaceable GA binding sites, was calculated by subtracting the amount of nonspecific binding from the amount of total binding. The same as above can also be carried out for other GAs.
Thus, it was postulated that, like GID2, GID1 is involved in the degradation of SLR1, or that GID1 functions upstream of SLR1 in GA signaling. […] Based on this phenotypic characteristic of gid1, it was predicted that GID1 was involved in GA perception. To verify this possibility, the interactions between GID1 and radioisotope-labeled GA was directly examined using non-equilibrium gel filtration (Nakajima, M. et al., Biochem. Biophys. Res. Comm. 241, 782-786 (1997)). […] Next, ligand specificity of GID1 was tested by using competition between the tritiated GA4 derivative and various GAs. The concentration of each GA that is required for a 50% inhibition (IC50) of the binding of the tritiated GA4 derivative to GID1 is shown in Table 1. […] The IC50 value for each of these GAs was well consistent with their physiological activity.

[3] = biological target: T2, AtGID1a (Arabidopsis thaliana, UniProt Q9MAA7); test: Competitive ability of GA in AtGID1-GA binding (AtGID1a); settings: for pIC50: tracer 15 nM, mean of at least two measurements
T2 construct: made in house; host or cells: E. coli
T2 sequence (Q9MAA7 1-345): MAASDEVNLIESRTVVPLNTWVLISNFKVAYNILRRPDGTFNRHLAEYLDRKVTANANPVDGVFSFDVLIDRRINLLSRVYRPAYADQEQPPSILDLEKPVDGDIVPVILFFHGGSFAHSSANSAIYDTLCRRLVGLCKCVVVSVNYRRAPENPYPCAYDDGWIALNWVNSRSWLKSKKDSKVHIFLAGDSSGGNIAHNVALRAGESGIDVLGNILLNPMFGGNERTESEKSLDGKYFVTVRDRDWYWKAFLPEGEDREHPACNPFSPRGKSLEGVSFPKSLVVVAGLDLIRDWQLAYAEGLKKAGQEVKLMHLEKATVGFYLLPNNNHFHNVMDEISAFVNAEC
Procedure: as §1
(§2) Specifically, the coding region of the AtGID1 gene was amplified by PCR using specific primers designed based on the full-length cDNA sequence of the AtGID1 gene and having appropriate restriction sites at each end. After confirmation by sequence analysis, each cDNA fragment was ligated into pET32a vector (Novagen/Merck Biosciences, Madison, Wis., USA) or pGEX-4T-2 vector (Amersham Biosciences, Piscataway, N.J., USA; currently, a part of GE Healthcare). The production of recombinant proteins was confirmed by SDS-PAGE; vector cassettes were used as negative controls. GA binding assays were carried out similarly as described above using [1,2,16,17-^3H4]-16,17-dihydro-GA4 (4.55 TBq/mmol), which was custom-made by DuPont/NEN (Boston, Mass., USA). Non-labeled GA4 (1.25 mM) was used to measure non-specific binding. Saturation experiments for the kinetic analysis were carried out using ten concentrations of 16,17-dihydro-GA4 within the range of 25 to 1,500 nM. Competition assays were performed using [1,2,16,17-^3H4]-16,17-dihydro-GA4 at 15 nM and five concentrations of the non-labeled competitor. Recombinant RGA and GAI proteins were prepared using pET32a by a previously described method.
(§3) The ligand selectivity of each AtGID1 was examined by observing the competitive inhibition, by the addition of GA to the assay mixtures, of the binding between the recombinant proteins and tritiated 16,17-dihydro-GA4 (Table 2). The ligand selectivity was evaluated using the concentration of GA that inhibits 50% of the tracer (15 nM) binding (IC50 value).

[4] = biological target: T3, AtGID1b (Arabidopsis thaliana, UniProt Q9LYC1); test: Competitive ability of GA in AtGID1-GA binding (AtGID1b); settings: for pIC50: tracer 15 nM, mean of at least two measurements
T3 construct: made in house; host or cells: E. coli
T3 sequence (Q9LYC1 1-358): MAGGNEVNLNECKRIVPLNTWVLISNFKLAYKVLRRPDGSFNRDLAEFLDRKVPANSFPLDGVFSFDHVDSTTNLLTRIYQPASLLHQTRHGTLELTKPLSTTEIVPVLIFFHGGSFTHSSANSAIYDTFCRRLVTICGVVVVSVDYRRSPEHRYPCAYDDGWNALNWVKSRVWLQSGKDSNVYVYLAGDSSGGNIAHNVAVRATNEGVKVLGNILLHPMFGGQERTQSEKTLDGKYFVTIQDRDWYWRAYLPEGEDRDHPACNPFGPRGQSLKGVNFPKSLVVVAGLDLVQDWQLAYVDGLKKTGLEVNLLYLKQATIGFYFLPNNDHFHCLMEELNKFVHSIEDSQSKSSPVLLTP
Procedure: as §1, §2, §3

[5] = biological target: T4, AtGID1c (Arabidopsis thaliana, UniProt Q940G6); test: Competitive ability of GA in AtGID1-GA binding (AtGID1c); settings: for pIC50: tracer 15 nM, mean of at least two measurements
T4 construct: made in house; host or cells: E. coli
T4 sequence (Q940G6 1-344): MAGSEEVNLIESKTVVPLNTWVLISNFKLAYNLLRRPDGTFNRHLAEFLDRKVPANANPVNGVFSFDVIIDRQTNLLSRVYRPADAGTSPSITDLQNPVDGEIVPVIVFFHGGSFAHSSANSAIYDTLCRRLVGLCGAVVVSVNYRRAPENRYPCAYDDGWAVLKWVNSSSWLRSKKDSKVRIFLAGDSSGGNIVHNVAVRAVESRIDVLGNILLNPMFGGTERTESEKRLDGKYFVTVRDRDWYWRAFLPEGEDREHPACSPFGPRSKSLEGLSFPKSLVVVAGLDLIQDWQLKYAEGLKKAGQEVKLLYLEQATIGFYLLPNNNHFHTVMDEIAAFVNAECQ
Procedure: as §1, §2, §3

T1 sequence (Q6L545 whole entry): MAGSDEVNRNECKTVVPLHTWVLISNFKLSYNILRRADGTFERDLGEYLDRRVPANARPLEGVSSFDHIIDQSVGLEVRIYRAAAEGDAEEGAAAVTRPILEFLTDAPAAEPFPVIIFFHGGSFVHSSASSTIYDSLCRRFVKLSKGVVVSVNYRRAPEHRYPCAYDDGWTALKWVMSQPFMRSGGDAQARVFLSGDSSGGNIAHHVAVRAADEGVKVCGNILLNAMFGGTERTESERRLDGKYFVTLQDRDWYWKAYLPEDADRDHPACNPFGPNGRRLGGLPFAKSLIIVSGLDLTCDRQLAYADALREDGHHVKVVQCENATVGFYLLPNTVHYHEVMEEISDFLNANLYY

| Substance | half-time required for association/dissociation [1] | half-time required for association/dissociation ([1]; listed as GA4 derivative) | pIC50 [2] | Rel % (relative value) [2] | relative value, taking the value for GA4 as 100 [3] | pIC50 [3] | relative value, taking the value for GA4 as 100 [4] | pIC50 [4] | relative value, taking the value for GA4 as 100 [5] | pIC50 [5] |
| --- | --- | --- | --- | --- | --- | --- | --- | --- | --- | --- |
| [1,2,16,17-^3H4]16,17-dihydro-GA4 [^3H4-16,17-dihydroGA4] | within several minutes | several minutes or less |  |  |  |  |  |  |  |  |
| methyl ester of GA4 [GA4-Me] |  |  | 4.52 | (0.6) % | (0.1) % | 3.52 | (0.3) % | 5.05 | (0.3) % | 4.05 |
| 3-epi-GA4 |  |  | < 3.70 | (<0.1) % | (<0.1) % | < 3.52 | (<0.1) % | 4.00 | (<0.1) % | < 3.52 |
